According to PubChem BioAssay AID1963874 (Molecular Pharmacology Branch, DTP, NCI, 2024):

System: 253994-281-T-J1-PDC KRAS-mutant spheroids with HUVEC/MSC, viability
Experiment: Anticancer human tumor 253994-281-T-J1-PDC patient-derived colorectal carcinoma cell line growth inhibition [KRAS2]
Conditions: for IC50: curve of first compound; for viability, T/C: stronger effect = lower value; active means viability on the fitted dose curve at most 10% of control; inactive means the rest
Method in brief: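 KRAS-mutant tumor cells were grown as spheroids with HUVEC endothelial cells and human MSCs as stroma. Targeted agents were tested alone and with KRAS pathway inhibitors. Doses started at or near clinical Cmax, or 10 microM, descending half-log.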

[1] = second compound 0.1 µM, first compound 0.0316 µM
[2] = second compound 0.1 µM, first compound 0.1 µM
[3] = second compound 0.1 µM, first compound 0.316 µM
[4] = second compound 0.1 µM, first compound 1 µM
[5] = second compound 0.1 µM, first compound 3.16 µM
[6] = second compound 0.1 µM, first compound 10 µM
[7] = second compound 0.316 µM, first compound 0.0316 µM
[8] = second compound 0.316 µM, first compound 0.1 µM
[9] = second compound 0.316 µM, first compound 0.316 µM
[10] = second compound 0.316 µM, first compound 1 µM
[11] = second compound 0.316 µM, first compound 3.16 µM
[12] = second compound 0.316 µM, first compound 10 µM
[13] = second compound 1 µM, first compound 0.0316 µM
[14] = second compound 1 µM, first compound 0.1 µM
[15] = second compound 1 µM, first compound 0.316 µM
[16] = second compound 1 µM, first compound 1 µM
[17] = second compound 1 µM, first compound 3.16 µM
[18] = second compound 1 µM, first compound 10 µM
[19] = second compound 3.16 µM, first compound 0.0316 µM
[20] = second compound 3.16 µM, first compound 0.1 µM
[21] = second compound 3.16 µM, first compound 0.316 µM
[22] = second compound 3.16 µM, first compound 1 µM
[23] = second compound 3.16 µM, first compound 3.16 µM
[24] = second compound 3.16 µM, first compound 10 µM
[25] = second compound 10 µM, first compound 0.0316 µM
[26] = second compound 10 µM, first compound 0.1 µM
[27] = second compound 10 µM, first compound 0.316 µM
[28] = second compound 10 µM, first compound 1 µM
[29] = second compound 10 µM, first compound 3.16 µM
[30] = second compound 10 µM, first compound 10 µM
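Further: spheroids exposed to agents for seven days before readout.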
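Wherever viability, T/C is given: percent of DMSO vehicle control viability.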

COc1cc2nccc(Oc3ccc(NC(=O)C4(C(=O)Nc5ccc(F)cc5)CC4)cc3)c2cc1OC + CNCc1ccccc1-c1csc(C(C)Nc2nc(C)nc3cc(OC)c(OC)cc23)c1
inactive: viability, T/C [1] 99.4% | viability, T/C [2] 99.1% | viability, T/C [3] 83.8% | viability, T/C [4] 85% | viability, T/C [5] 94.5% | viability, T/C [6] 61.1% | viability, T/C [7] 98.2% | viability, T/C [8] 92% | viability, T/C [9] 84.9% | viability, T/C [10] 96.6% | viability, T/C [11] 68% | viability, T/C [12] 28% | viability, T/C [13] 93.3% | viability, T/C [14] 87.4% | viability, T/C [15] 85.1% | viability, T/C [16] 85.7% | viability, T/C [17] 53.9% | viability, T/C [19] 43.2% | viability, T/C [20] 45.6% | viability, T/C [21] 49.7% | viability, T/C [22] 25%
> 10 µM: IC50 (second compound 0.1 µM)
3.47 µM: IC50 (second compound 1 µM)
5.3 µM: IC50 (second compound 0.316 µM)
< 0.0316 µM: IC50 (second compound 3.16 µM) | IC50 (second compound 10 µM)
active: viability, T/C [18] 5.85% | viability, T/C [23] 12.3% | viability, T/C [24] 0.16% | viability, T/C [25] 0.13% | viability, T/C [26] 0.14% | viability, T/C [27] 0.13% | viability, T/C [28] 0.13% | viability, T/C [29] 0.29% | viability, T/C [30] 0.16%

O=C(c1cc(Cc2n[nH]c(=O)c3ccccc23)ccc1F)N1CCN(C(=O)C2CC2)CC1 + CNCc1ccccc1-c1csc(C(C)Nc2nc(C)nc3cc(OC)c(OC)cc23)c1
active: viability, T/C [25] 0.17% | viability, T/C [26] 0.16% | viability, T/C [27] 0.17% | viability, T/C [28] 0.19% | viability, T/C [29] 0.17% | viability, T/C [30] 0.24%
inactive: viability, T/C [1] 101% | viability, T/C [2] 85.3% | viability, T/C [3] 99.8% | viability, T/C [4] 94.3% | viability, T/C [5] 95.2% | viability, T/C [6] 96.2% | viability, T/C [7] 103% | viability, T/C [8] 98.5% | viability, T/C [9] 90.5% | viability, T/C [10] 92.7% | viability, T/C [11] 99.5% | viability, T/C [12] 97.5% | viability, T/C [13] 96.4% | viability, T/C [14] 119% | viability, T/C [15] 93.8% | viability, T/C [16] 82.9% | viability, T/C [17] 75.7% | viability, T/C [18] 78.2% | viability, T/C [19] 19.2% | viability, T/C [20] 45% | viability, T/C [21] 12.3% | viability, T/C [22] 35.3% | viability, T/C [23] 16.5% | viability, T/C [24] 11%
> 10 µM: IC50 (second compound 0.1 µM) | IC50 (second compound 0.316 µM) | IC50 (second compound 1 µM)
< 0.0316 µM: IC50 (second compound 3.16 µM) | IC50 (second compound 10 µM)

COc1cc(Nc2ncc3c(n2)-c2ccc(Cl)cc2C(c2c(F)cccc2OC)=NC3)ccc1C(=O)O + C=CC(=O)N1CCN(c2nc(=O)n(-c3c(C)ccnc3C(C)C)c3nc(-c4c(O)cccc4F)c(F)cc23)C(C)C1
> 10 µM: IC50 (second compound 0.1 µM) | IC50 (second compound 0.316 µM) | IC50 (second compound 1 µM) | IC50 (second compound 3.16 µM) | IC50 (second compound 10 µM)
inactive: viability, T/C [1] 87.4% | viability, T/C [2] 48.2% | viability, T/C [3] 57% | viability, T/C [4] 62.5% | viability, T/C [5] 70.2% | viability, T/C [6] 73.6% | viability, T/C [7] 96% | viability, T/C [8] 53% | viability, T/C [9] 45.6% | viability, T/C [10] 65.8% | viability, T/C [11] 68.9% | viability, T/C [12] 67.7% | viability, T/C [13] 87.2% | viability, T/C [14] 57.4% | viability, T/C [15] 47.2% | viability, T/C [16] 56.9% | viability, T/C [17] 72.2% | viability, T/C [18] 76.2% | viability, T/C [19] 89.2% | viability, T/C [20] 61.8% | viability, T/C [21] 48.5% | viability, T/C [22] 59.1% | viability, T/C [23] 70.8% | viability, T/C [24] 82.4% | viability, T/C [25] 91.9% | viability, T/C [26] 55.1% | viability, T/C [27] 52.1% | viability, T/C [28] 69.6% | viability, T/C [29] 62.1% | viability, T/C [30] 67%

CC(C)NCC(C(=O)N1CCN(c2ncnc3c2C(C)CC3O)CC1)c1ccc(Cl)cc1 (stereo not given) + C=CC(=O)N1CCN(c2nc(OCC3CCCN3C)nc3c2CCN(c2cccc4cccc(C)c24)C3)CC1CC#N
inactive: viability, T/C (second compound 0.0316 µM, first compound 0.0316 µM) 104% | viability, T/C (second compound 0.0316 µM, first compound 0.1 µM) 105% | viability, T/C (second compound 0.0316 µM, first compound 0.316 µM) 99.7% | viability, T/C (second compound 0.0316 µM, first compound 1 µM) 94.7% | viability, T/C (second compound 0.0316 µM, first compound 3.16 µM) 96.3% | viability, T/C (second compound 0.0316 µM, first compound 10 µM) 92.7% | viability, T/C [1] 101% | viability, T/C [2] 98.8% | viability, T/C [3] 105% | viability, T/C [4] 91% | viability, T/C [5] 94.5% | viability, T/C [6] 100% | viability, T/C [7] 84% | viability, T/C [8] 94.2% | viability, T/C [9] 92.8% | viability, T/C [10] 84.9% | viability, T/C [11] 77.8% | viability, T/C [12] 85.2% | viability, T/C [13] 85.6% | viability, T/C [14] 101% | viability, T/C [15] 95.1% | viability, T/C [16] 90.3% | viability, T/C [17] 93.6% | viability, T/C [18] 88.7%
active: viability, T/C [19] 2.67% | viability, T/C [20] 11.2% | viability, T/C [21] 14.7% | viability, T/C [22] 12.3% | viability, T/C [23] 4.04% | viability, T/C [24] 0.49%
> 10 µM: IC50 (second compound 0.0316 µM) | IC50 (second compound 0.1 µM) | IC50 (second compound 0.316 µM) | IC50 (second compound 1 µM)
< 0.0316 µM: IC50 (second compound 3.16 µM)

Cn1ncnc1[C@H]1c2n[nH]c(=O)c3cc(F)cc(c23)N[C@@H]1c1ccc(F)cc1 + CC1OCC2(CCN(c3cnc(Sc4ccnc(N)c4Cl)c(N)n3)CC2)C1N
inactive: viability, T/C (second compound 0.1 µM, first compound 0.000316 µM) 94.9% | viability, T/C (second compound 0.1 µM, first compound 0.001 µM) 94.9% | viability, T/C (second compound 0.1 µM, first compound 0.00316 µM) 99.9% | viability, T/C (second compound 0.1 µM, first compound 0.01 µM) 109% | viability, T/C [1] 103% | viability, T/C [2] 94.4% | viability, T/C (second compound 0.316 µM, first compound 0.000316 µM) 95.5% | viability, T/C (second compound 0.316 µM, first compound 0.001 µM) 83.6% | viability, T/C (second compound 0.316 µM, first compound 0.00316 µM) 98.6% | viability, T/C (second compound 0.316 µM, first compound 0.01 µM) 85.5% | viability, T/C [7] 87.2% | viability, T/C [8] 76.8% | viability, T/C (second compound 1 µM, first compound 0.000316 µM) 85.7% | viability, T/C (second compound 1 µM, first compound 0.001 µM) 86% | viability, T/C (second compound 1 µM, first compound 0.00316 µM) 93.2% | viability, T/C (second compound 1 µM, first compound 0.01 µM) 73.1% | viability, T/C [13] 74.8% | viability, T/C [14] 80.8% | viability, T/C (second compound 3.16 µM, first compound 0.000316 µM) 67.1% | viability, T/C (second compound 3.16 µM, first compound 0.001 µM) 58.3% | viability, T/C (second compound 3.16 µM, first compound 0.00316 µM) 71.4% | viability, T/C (second compound 3.16 µM, first compound 0.01 µM) 66% | viability, T/C [19] 63.6% | viability, T/C [20] 55.5% | viability, T/C (second compound 10 µM, first compound 0.000316 µM) 46.8% | viability, T/C (second compound 10 µM, first compound 0.001 µM) 47.1% | viability, T/C (second compound 10 µM, first compound 0.00316 µM) 33.4% | viability, T/C (second compound 10 µM, first compound 0.01 µM) 40.1% | viability, T/C [25] 44.2% | viability, T/C [26] 32.3%
> 0.1 µM: IC50 (second compound 0.1 µM) | IC50 (second compound 0.316 µM) | IC50 (second compound 1 µM) | IC50 (second compound 3.16 µM)
< 0.000316 µM: IC50 (second compound 10 µM)

CC1(C)CCC(CN2CCN(c3ccc(C(=O)NS(=O)(=O)c4ccc(NCC5CCOCC5)c([N+](=O)[O-])c4)c(Oc4cnc5[nH]ccc5c4)c3)CC2)=C(c2ccc(Cl)cc2)C1 + C=CC(=O)N1CCN(c2nc(=O)n(-c3c(C)ccnc3C(C)C)c3nc(-c4c(O)cccc4F)c(F)cc23)C(C)C1
> 10 µM: IC50 (second compound 0.1 µM) | IC50 (second compound 0.316 µM) | IC50 (second compound 1 µM) | IC50 (second compound 3.16 µM) | IC50 (second compound 10 µM)
inactive: viability, T/C [1] 107% | viability, T/C [2] 92.5% | viability, T/C [3] 100% | viability, T/C [4] 99.5% | viability, T/C [5] 93.3% | viability, T/C [6] 78.8% | viability, T/C [7] 96.6% | viability, T/C [8] 92.9% | viability, T/C [9] 100% | viability, T/C [10] 98.8% | viability, T/C [11] 87.3% | viability, T/C [12] 71.5% | viability, T/C [13] 100% | viability, T/C [14] 105% | viability, T/C [15] 107% | viability, T/C [16] 100% | viability, T/C [17] 88.1% | viability, T/C [18] 62.7% | viability, T/C [19] 97.3% | viability, T/C [20] 99.9% | viability, T/C [21] 88.8% | viability, T/C [22] 96.3% | viability, T/C [23] 84.8% | viability, T/C [24] 77.9% | viability, T/C [25] 105% | viability, T/C [26] 98.3% | viability, T/C [27] 94.4% | viability, T/C [28] 89.2% | viability, T/C [29] 87.9% | viability, T/C [30] 83.3%
